In PubChem BioAssay AID248 (DTP/NCI, 2004):
Several values for one entry are separate records, joined by “and”; a condition that tells them apart may be missing. Identical values can stand only once. Inconclusive results and toxic doses are left out. Cut-off read from the data, not from the text of the source: active = T/C of 150% or more; inactive = T/C below 125%.

Test system: L1210 leukemia ip in BDF1 mice, survival T/C
Assay: NCI In Vivo Anticancer Drug Screen. Data for tumor model L1210 Leukemia (intraperitoneal) in B6D2F1 (BDF1) mice
Conditions: endpoint: mean survival time, higher = longer survival
Procedure, shortened: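 Each compound was tested against a transplantable tumor grown in mice. The endpoint was survival, with treated animals benchmarked against vehicle controls as a simple ratio.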

[1] = dose: 100.0 mg/kg/injection, schedule: Q04DX003 (ip), vehicle: saline with Tween-80
[2] = dose: 200.0 mg/kg/injection, schedule: Q04DX003 (ip), vehicle: saline with Tween-80
[3] = dose: 100.0 mg/kg/injection, schedule: Q01DX009 (ip), vehicle: Klucel (hydroxypropylcellulose) (HPC)
[4] = dose: 200.0 mg/kg/injection, schedule: Q01DX009 (ip), vehicle: Klucel (hydroxypropylcellulose) (HPC)
[5] = dose: 100.0 mg/kg/injection, schedule: Q01DX009 (ip), vehicle: saline
[6] = dose: 100.0 mg/kg/injection, schedule: Q04DX003 (ip), vehicle: Klucel (hydroxypropylcellulose) (HPC)
[7] = dose: 200.0 mg/kg/injection, schedule: Q04DX003 (ip), vehicle: Klucel (hydroxypropylcellulose) (HPC)
[8] = dose: 400.0 mg/kg/injection, schedule: Q04DX003 (ip), vehicle: Klucel (hydroxypropylcellulose) (HPC)
[9] = dose: 200.0 mg/kg/injection, schedule: Q01DX009 (ip), vehicle: saline with Tween-80
[10] = dose: 400.0 mg/kg/injection, schedule: Q01DX009 (ip), vehicle: saline with Tween-80
[11] = dose: 400.0 mg/kg/injection, schedule: Q04DX003 (ip), vehicle: saline with Tween-80

Measured: T/C

COc1ccc(/C=C2\N=C(c3ccccc3)OC2=O)c(Cl)c1OC
inactive: dose: 50.0 mg/kg/injection, schedule: Q01DX001 (ip), vehicle: saline 97 % of control | dose: 100.0 mg/kg/injection, schedule: Q01DX001 (ip), vehicle: saline 97 % of control | dose: 200.0 mg/kg/injection, schedule: Q01DX001 (ip), vehicle: saline 100 % of control | dose: 400.0 mg/kg/injection, schedule: Q01DX001 (ip), vehicle: saline 94 % of control

O=C1OC2(c3ccccc31)c1ccccc1-c1ccccc12
inactive: [1] 97 % of control | [2] 89 % of control

CCc1nc(N(C)CC(=O)O)nc(CC)c1-c1ccccc1O
inactive: dose: 50.0 mg/kg/injection, schedule: Q04DX002 (ip), vehicle: Klucel (hydroxypropylcellulose) (HPC) 111 % of control | dose: 100.0 mg/kg/injection, schedule: Q04DX002 (ip), vehicle: Klucel (hydroxypropylcellulose) (HPC) 101 % of control and 86 % of control | dose: 200.0 mg/kg/injection, schedule: Q04DX002 (ip), vehicle: Klucel (hydroxypropylcellulose) (HPC) 104 % of control | dose: 400.0 mg/kg/injection, schedule: Q04DX002 (ip), vehicle: Klucel (hydroxypropylcellulose) (HPC) 86 % of control

CCOC(=O)/C=N/Nc1ccc([N+](=O)[O-])cc1[N+](=O)[O-]
inactive: dose: 50.0 mg/kg/injection, schedule: Q01DX001 (ip), vehicle: other 95 % of control | dose: 100.0 mg/kg/injection, schedule: Q01DX001 (ip), vehicle: other 90 % of control | dose: 200.0 mg/kg/injection, schedule: Q01DX001 (ip), vehicle: other 95 % of control | dose: 400.0 mg/kg/injection, schedule: Q01DX001 (ip), vehicle: other 92 % of control

C=CCNC(=S)NCc1ccc(C)cc1
inactive: [3] 96 % of control | [4] 93 % of control

Cc1cc([N+](=O)[O-])ccc1P(=O)(O)O
inactive: [1] 100 % of control | [2] 108 % of control

O=C(O)C1C2c3ccccc3C(C1C(=O)O)[n+]1ccccc12 (stereo not drawn)
inactive: [5] 95 % of control | dose: 200.0 mg/kg/injection, schedule: Q01DX009 (ip), vehicle: saline 103 % of control | dose: 400.0 mg/kg/injection, schedule: Q01DX009 (ip), vehicle: saline 94 % of control

CCCCn1c(=O)cc[nH]c1=O
inactive: [6] 99 % of control | [7] 91 % of control | [8] 93 % of control

Cc1c(C(=O)Nc2ccc(C3=NCCN3)cc2)cccc1C(=O)Nc1ccc(C2=NCCN2)cc1
inactive: dose: 42.0 mg/kg/injection, schedule: Q01DX Z (ip), vehicle: carboxymethylcellulose (CMC) 104 % of control | dose: 85.0 mg/kg/injection, schedule: Q01DX Z (ip), vehicle: carboxymethylcellulose (CMC) 104 % of control

NC(=O)NNC(O)(C(F)(F)F)C(F)(F)F
inactive: dose: 100.0 mg/kg/injection, schedule: Q01DX001 (ip), vehicle: carboxymethylcellulose (CMC) 103 % of control | dose: 200.0 mg/kg/injection, schedule: Q01DX001 (ip), vehicle: carboxymethylcellulose (CMC) 108 % of control

Cc1ccc2c(c1)CN(Cc1ccccc1)CO2
inactive: dose: 75.0 mg/kg/injection, schedule: Q01DX009 (ip), vehicle: saline 89 % of control | dose: 150.0 mg/kg/injection, schedule: Q01DX009 (ip), vehicle: saline 94 % of control | [7] 103 % of control | dose: 300.0 mg/kg/injection, schedule: Q01DX009 (ip), vehicle: saline 102 % of control | [8] 97 % of control

C=C1N(C)c2ccccc2C1(C)C
inactive: dose: 0.5 mg/kg/injection, schedule: Q01DX015 (ip), vehicle: carboxymethylcellulose (CMC) 97 % of control | dose: 1.0 mg/kg/injection, schedule: Q01DX015 (ip), vehicle: carboxymethylcellulose (CMC) 101 % of control | dose: 2.0 mg/kg/injection, schedule: Q01DX015 (ip), vehicle: carboxymethylcellulose (CMC) 104 % of control | dose: 4.0 mg/kg/injection, schedule: Q01DX015 (ip), vehicle: carboxymethylcellulose (CMC) 97 % of control and 123 % of control | dose: 8.0 mg/kg/injection, schedule: Q01DX015 (ip), vehicle: carboxymethylcellulose (CMC) 123 % of control

NCC(=O)OC(c1ccccc1)(c1ccccc1)c1ccccc1
inactive: [3] 96 % of control | [6] 98 % of control | [4] 96 % of control | [7] 88 % of control | [8] 89 % of control

Cc1n[nH]c(C)c1Br
inactive: dose: 75.0 mg/kg/injection, schedule: Q01DX009 (ip), vehicle: saline with Tween-80 95 % of control | dose: 75.0 mg/kg/injection, schedule: Q04DX003 (ip), vehicle: saline with Tween-80 97 % of control | dose: 150.0 mg/kg/injection, schedule: Q01DX009 (ip), vehicle: saline with Tween-80 97 % of control | dose: 150.0 mg/kg/injection, schedule: Q04DX003 (ip), vehicle: saline with Tween-80 95 % of control | dose: 300.0 mg/kg/injection, schedule: Q01DX009 (ip), vehicle: saline with Tween-80 99 % of control | dose: 300.0 mg/kg/injection, schedule: Q04DX003 (ip), vehicle: saline with Tween-80 98 % of control

O=CC(O)C(O)C(O)C(O)COP(=O)(O)O (stereo not drawn)
inactive: dose: 25.0 mg/kg/injection, schedule: Q01DX009 (ip), vehicle: saline 102 % of control | dose: 50.0 mg/kg/injection, schedule: Q01DX009 (ip), vehicle: saline 93 % of control | [5] 88 % of control

Cc1ncc(CO)c(Nc2ccccc2)n1
inactive: dose: 100.0 mg/kg/injection, schedule: Q01DX001 (ip), vehicle: Klucel (hydroxypropylcellulose) (HPC) 90 % of control | dose: 200.0 mg/kg/injection, schedule: Q01DX001 (ip), vehicle: Klucel (hydroxypropylcellulose) (HPC) 108 % of control | dose: 400.0 mg/kg/injection, schedule: Q01DX001 (ip), vehicle: Klucel (hydroxypropylcellulose) (HPC) 96 % of control

O=c1ccnc(/C=C/c2ccc(Cl)cc2)[nH]1
inactive: [9] 87 % of control | [10] 96 % of control

O=C(O)C1CCCCC1C(=O)Nc1ccc(F)cc1 (stereo not drawn)
inactive: dose: 100.0 mg/kg/injection, schedule: Q01DX009 (ip), vehicle: saline with Tween-80 103 % of control | [1] 102 % of control | [9] 90 % of control | [2] 102 % of control | [10] 105 % of control | [11] 96 % of control

CC(C)(CN=Cc1ccccc1[O-])N=Cc1ccccc1[O-].[O]=[V]
inactive: dose: 50.0 mg/kg/injection, schedule: Q01DX009 (ip), vehicle: saline with Tween-80 98 % of control

CN(CCC(C#N)(CCC#N)c1ccccc1)Cc1ccccc1 (stereo not drawn)
inactive: dose: 75.0 mg/kg/injection, schedule: Q01DX001 (ip), vehicle: saline 102 % of control | dose: 150.0 mg/kg/injection, schedule: Q01DX001 (ip), vehicle: saline 102 % of control

O=C1OC(/C=C/c2ccccc2)=NC/1=C\c1ccccc1
inactive: dose: 100.0 mg/kg/injection, schedule: Q04DX002 (ip), vehicle: saline with Tween-80 92 % of control | dose: 200.0 mg/kg/injection, schedule: Q04DX002 (ip), vehicle: saline with Tween-80 95 % of control | dose: 400.0 mg/kg/injection, schedule: Q04DX002 (ip), vehicle: saline with Tween-80 92 % of control

COCCNC(=O)NS(=O)(=O)c1ccc(C)cc1
inactive: [1] 98 % of control | [2] 98 % of control | [11] 96 % of control

COc1ccc(Cl)cc1NC(=O)Nc1cc(C)ccn1
inactive: [3] 104 % of control | [4] 100 % of control | dose: 400.0 mg/kg/injection, schedule: Q01DX009 (ip), vehicle: Klucel (hydroxypropylcellulose) (HPC) 88 % of control

CS(=O)(=O)c1ccc(F)c([N+](=O)[O-])c1
inactive: dose: 25.0 mg/kg/injection, schedule: Q04DX003 (ip), vehicle: Klucel (hydroxypropylcellulose) (HPC) 92 % of control | dose: 50.0 mg/kg/injection, schedule: Q04DX003 (ip), vehicle: Klucel (hydroxypropylcellulose) (HPC) 92 % of control | [6] 95 % of control
